Data: patent US9115083B2 (Simpson Biotech Co., Ltd, priority 2011, dated 2015)
Like-named read-outs stand apart in the source and are kept apart here.

Columns and labels:
HIV-1 protease = HIV-1 protease (Human immunodeficiency virus type 1 group M subtype B (isolate HXB2) (HIV-1), UniProt P04585); assay: HIV-1 protease inhibition assay (HPLC of hydrolysis product); type: biochemical
Experimental: HIV was a retrovirus with a single-stranded RNA genome. HIV protease was an important enzyme for replication. Translated proteins in the host cell were out into the desired shape by the enzyme. The substance was a protein dimer consisting of 99 amino acids, and the active center was Asp residues.
In this assay, oligopeptide (His-Lys-Ala-Arg-Val-Leu-Phe(NO2)-Glu-Ala-NLe-Ser-NH2) with strengthened absorbance was prepared as a substrate, in which para site of […] was modified by nitro. The substrate was incubated in the presence of HIV-1 protease and the test samples. Generation ratio of hydrolysis product (Phe (NO2)-Glu-Ala-NLe-Ser-NH2) was analyzed by HPLC, and the HIV-1 inhibitory activity in test sample was detected (Y. Wei, C. M. Ma, D. Y. Chen and M. Hattori: Anti-HIV-1 Protease Triterpenoids from Stauntonia Obovatifoloala Hayata Subsp. Phytochemistry, 69, 1875-1879, 2008). In this assay, pepsatatin A was used as a positive control.

[1] = test system: Propionicbacterium acnes and lipopolysaccharide treated mice; conditions: cited from earlier work
HCV protease = HCV protease (Hepatitis C virus genotype 1a (isolate H77) (HCV), UniProt P27958); conditions: from PCT publication No. WO 2009/094807, cited from earlier work; for IC50: read-out: anti HCV activity
[2] = molecular target: dipeptidyl peptidase-IV (DPPIV) (Homo sapiens (Human), UniProt P27487); assay: dipeptidyl peptidase-IV (DPPIV) assay; type: biochemical; conditions: Table 10, first scaffold; read-out: IC50 against DPPIV (converted)
Description: In addition, the dipeptidyl peptidase-IV (DPPIV) assay herein was applied to investigate the DPPIV inhibitory activity of the prepared compounds as described above. The method of the DPPIV assay was described in Lin et al., 1998. Inhibition of dipeptidyl peptidase IV by fluoroolefin-containing N-peptidyl-O-hydroxylamine peptidomimetics. Proc. Natl. Acad. Sci. USA Vol. 95, pp. 14020-14024.

NS3/4A HCV protease = NS3/4A HCV protease (Hepatitis C virus genotype 1a (isolate H77) (HCV), UniProt P27958); assay: NS3/4A HCV protease inhibition assay; type: biochemical; conditions: read-out: NS3/4A HCV protease inhibitive activity IC50
Experimental: When sensitive cells were infected with HCV virus, some precursor proteins were translated from uncoated virus RNA in the cytoplasm. According to the protease, the precursor proteins were processed into different viral proteins. Among viral proteins, NS3, a serine protease and RNA helicase, was an important non-structural protein involved in virus protein maturation and virus genome replication.
In this assay, protein (FRET) was prepared and modified with fluorescent protein 5-FAM as a substrate and QXL™520 as a quencher. The substrate was incubated with NS3/4A HCV protease and testing samples, and the fluorescence intensity was measured, according to the mechanism shown in FIG. 7 (C. M. Ma, Yo Wei, Z. G. Wang and M. Hattori: Triterpenes from Cynomorium Songaricium-analysis of HCV Protease Inhibitory Activity, Quantification and Content Change Under the Influence of Heating. J. Nat. Med., 63, 9-14, 2009). In this assay, HCV NS3 Protease Inhibitor 2 was used as positive control.

[3] = read-out: HIV-1 protease inhibitive activity IC50

Chain of dipeptidyl peptidase-IV (DPPIV) (P27487 whole entry, species assumed): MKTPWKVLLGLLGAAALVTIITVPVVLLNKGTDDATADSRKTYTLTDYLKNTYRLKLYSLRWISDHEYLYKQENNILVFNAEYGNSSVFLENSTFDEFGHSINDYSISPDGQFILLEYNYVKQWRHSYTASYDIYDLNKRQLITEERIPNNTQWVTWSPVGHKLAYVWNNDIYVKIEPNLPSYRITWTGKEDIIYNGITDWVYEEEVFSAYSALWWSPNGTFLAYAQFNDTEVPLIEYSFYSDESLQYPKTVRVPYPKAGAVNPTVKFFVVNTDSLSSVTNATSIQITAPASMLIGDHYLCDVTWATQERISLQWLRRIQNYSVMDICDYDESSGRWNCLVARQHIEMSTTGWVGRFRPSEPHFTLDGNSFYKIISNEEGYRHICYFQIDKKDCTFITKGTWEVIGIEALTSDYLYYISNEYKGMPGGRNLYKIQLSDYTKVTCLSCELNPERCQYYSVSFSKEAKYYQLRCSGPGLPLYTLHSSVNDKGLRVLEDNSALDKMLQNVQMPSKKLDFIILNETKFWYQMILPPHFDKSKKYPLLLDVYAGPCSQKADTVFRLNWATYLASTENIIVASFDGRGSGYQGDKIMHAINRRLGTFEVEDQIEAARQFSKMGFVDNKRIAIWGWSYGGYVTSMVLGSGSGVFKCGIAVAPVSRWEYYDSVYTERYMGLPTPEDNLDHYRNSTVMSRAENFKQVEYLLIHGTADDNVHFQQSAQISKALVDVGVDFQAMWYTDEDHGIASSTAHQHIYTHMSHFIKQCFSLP
Chain of HCV protease (P27958 1027-1657): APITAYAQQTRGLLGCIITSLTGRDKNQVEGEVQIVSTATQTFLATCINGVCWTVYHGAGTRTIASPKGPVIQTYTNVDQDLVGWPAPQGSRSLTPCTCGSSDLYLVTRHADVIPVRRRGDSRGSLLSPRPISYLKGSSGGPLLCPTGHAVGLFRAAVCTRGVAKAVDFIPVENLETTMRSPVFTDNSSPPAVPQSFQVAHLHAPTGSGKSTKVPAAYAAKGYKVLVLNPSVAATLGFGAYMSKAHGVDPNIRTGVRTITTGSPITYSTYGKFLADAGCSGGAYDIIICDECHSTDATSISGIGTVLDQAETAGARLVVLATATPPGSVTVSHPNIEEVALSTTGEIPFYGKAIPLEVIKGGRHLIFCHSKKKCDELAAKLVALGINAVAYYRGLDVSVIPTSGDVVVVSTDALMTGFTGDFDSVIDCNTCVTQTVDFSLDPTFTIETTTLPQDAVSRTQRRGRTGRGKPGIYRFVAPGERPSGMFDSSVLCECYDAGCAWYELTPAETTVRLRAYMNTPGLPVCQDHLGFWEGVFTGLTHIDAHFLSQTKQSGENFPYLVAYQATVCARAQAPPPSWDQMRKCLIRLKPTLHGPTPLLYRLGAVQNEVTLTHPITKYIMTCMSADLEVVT
Chain of HCV protease (P27958 1658-1711 partner): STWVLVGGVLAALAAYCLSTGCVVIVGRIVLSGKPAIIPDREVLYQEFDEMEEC
Chain of NS3/4A HCV protease (P27958 1027-1657): as the sequence (P27958 1027-1657) above
Chain of NS3/4A HCV protease (P27958 1658-1711 partner): as the sequence (P27958 1658-1711 partner) above

Which IC50 (HIV-1 protease; [3]) does the source give for `CC(C)=CCOc1ccc([C@H]2C(=O)N(O)C(=O)[C@@H]2CC(C)C)cc1` (relative stereo) [Compound 4, (3R*,4S*)-1-hydroxy-3-isobutyl-4-[4-(3-methyl-2-butenyloxy)phenyl]pyrrolidine-2,5-dione] here?
The IC50 was 4.4 µM.

What does the source list for `CC(C)=CCOc1ccc(C2=C(CC(C)C)C(=O)N(O)C2=O)cc1` [Compound 3, 3-isobutyl-4-[4-(3-methyl-2-butenyloxy)phenyl]-1H-pyrrol-1-ol-2,5-dione]?
protective activity in treated mice [1]: protective activity; IC50 (HCV protease): 8.8 µM; IC50 (HIV-1 protease): 6.5 µM; IC50 [2]: 115 µM

For `CC(C)=CCOc1ccc([C@@H]2C(=O)N(O)C(=O)[C@@H]2CC(C)C)cc1` (relative stereo) [Compound 5, (3R*,4R*)-1-hydroxy-3-isobutyl-4-[4-(3-methyl-2-butenyloxy)phenyl]pyrrolidine-2,5-dione], which IC50 (HIV-1 protease; [3]) is on record?
Its IC50 is 198 µM.

What does the source list for `CC(C)=CCOc1ccc(C2=C(CC(C)C)C(=O)NC2=O)cc1` [Compound 2, 3-isobutyl-4-[4-(3-methyl-2-butenyloxy)phenyl]-1H-pyrrol-2,5-dione]?
anti HCV activity (in words) (HCV protease): low activity; IC50 (HIV-1 protease): 54 µM; IC50 [2]: 160 µM

With `CC(C)=CCOc1ccc(C2=C(CC(C)C)C(=O)OC2=O)cc1` [Compound 1, 3-isobutyl-4-[4-(3-methyl-2-butenyloxy)phenyl]furan-2,5-dione] as the compound, how does the IC50 (HCV protease) read?
The IC50 was 2.86 µM.

And the IC50 (HIV-1 protease)?
Its IC50 is > 300 µM.

And the IC50 [2]?
Its IC50 is 79.5 µM.

With `CC(C)=CCOc1ccc(C2C(=O)N(O)C(=O)/C2=C\C(C)C)cc1` (centres unmarked) [Compound of formula (XIII)] as the compound, how does the IC50 (HIV-1 protease; [3]) read?
Its IC50 is 16.6 µM.

What about the IC50 (NS3/4A HCV protease) of the same compound?
The IC50 was 8.7 µM.
